Columns and labels:
RXRγ = molecular target: T1, RXRγ (UniProt P28705); test: ligand binding assay, RXRγ; design: other: RXRγ; last entry of cell; conditions: last entry of cell, read-out: RXR Bind Ki (nM) γ
T1 sequence (P28705 1-463): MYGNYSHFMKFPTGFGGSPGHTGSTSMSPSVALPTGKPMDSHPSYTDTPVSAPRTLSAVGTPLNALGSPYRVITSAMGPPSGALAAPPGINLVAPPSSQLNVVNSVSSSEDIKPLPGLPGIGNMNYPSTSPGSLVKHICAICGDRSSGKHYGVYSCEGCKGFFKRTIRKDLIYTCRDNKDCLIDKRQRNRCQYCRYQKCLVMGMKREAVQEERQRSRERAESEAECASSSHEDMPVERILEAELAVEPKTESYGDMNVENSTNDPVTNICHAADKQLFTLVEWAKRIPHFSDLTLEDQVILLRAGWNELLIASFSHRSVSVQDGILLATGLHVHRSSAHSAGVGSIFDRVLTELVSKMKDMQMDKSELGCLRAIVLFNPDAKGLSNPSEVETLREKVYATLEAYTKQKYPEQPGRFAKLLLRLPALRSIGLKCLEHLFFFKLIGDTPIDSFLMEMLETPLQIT
Text: (§1) A holoreceptor transactivation assay and a ligand binding assay which measure the antagonist/agonist like activity of the compounds of the invention, or their ability to bind to the several retinoid receptor subtypes, respectively, are described in published PCT Application No. WO WO93/11755 (particularly on pages 30-33 and 37-41) published on Jun. 24, 1993, the specification of which is also incorporated herein by reference. A detailed experimental procedure for holoreceptor transactivations has been described by Heyman et al. Cell 68, 397-406, (1992); Allegretto et al. J. Biol. Chem. 268, 26625-26633, and Mangelsdorf et al. The Retinoids: Biology, Chemistry and Medicine, pp 319-349, Raven Press Ltd., New York, which are expressly incorporated herein by reference. The results obtained in this assay are expressed in EC50 numbers, as they are also in the chimeric receptor transactivation assay. The results of ligand binding assay are expressed in Kd numbers. (See Cheng et al. Biochemical Pharmacology Vol. 22 pp 3099-3108, expressly incorporated herein by reference.)

RARγ = molecular target: T2, RARγ (Homo sapiens, UniProt P13631); test: ligand binding assay, RARγ; conditions: second entry of cell, read-out: RAR Bind. Ki (nM) γ
T2 sequence (P13631 1-454): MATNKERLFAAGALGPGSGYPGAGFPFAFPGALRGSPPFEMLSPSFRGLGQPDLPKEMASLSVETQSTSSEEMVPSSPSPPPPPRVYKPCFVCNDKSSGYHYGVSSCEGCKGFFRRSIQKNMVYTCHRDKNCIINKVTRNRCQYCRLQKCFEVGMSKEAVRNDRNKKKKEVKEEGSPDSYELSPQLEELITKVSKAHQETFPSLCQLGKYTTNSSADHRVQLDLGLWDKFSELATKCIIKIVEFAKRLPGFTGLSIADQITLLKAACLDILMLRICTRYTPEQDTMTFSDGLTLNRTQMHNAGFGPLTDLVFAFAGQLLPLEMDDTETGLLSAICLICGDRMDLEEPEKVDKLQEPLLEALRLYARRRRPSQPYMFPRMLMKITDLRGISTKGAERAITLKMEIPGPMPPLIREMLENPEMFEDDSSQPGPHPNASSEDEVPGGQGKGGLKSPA
Text: as §1

RARα = molecular target: T3, RARα (Homo sapiens, UniProt P10276); test: ligand binding assay, RARα; conditions: second entry of cell, read-out: RAR Bind. Ki (nM) α
T3 sequence (P10276 1-462): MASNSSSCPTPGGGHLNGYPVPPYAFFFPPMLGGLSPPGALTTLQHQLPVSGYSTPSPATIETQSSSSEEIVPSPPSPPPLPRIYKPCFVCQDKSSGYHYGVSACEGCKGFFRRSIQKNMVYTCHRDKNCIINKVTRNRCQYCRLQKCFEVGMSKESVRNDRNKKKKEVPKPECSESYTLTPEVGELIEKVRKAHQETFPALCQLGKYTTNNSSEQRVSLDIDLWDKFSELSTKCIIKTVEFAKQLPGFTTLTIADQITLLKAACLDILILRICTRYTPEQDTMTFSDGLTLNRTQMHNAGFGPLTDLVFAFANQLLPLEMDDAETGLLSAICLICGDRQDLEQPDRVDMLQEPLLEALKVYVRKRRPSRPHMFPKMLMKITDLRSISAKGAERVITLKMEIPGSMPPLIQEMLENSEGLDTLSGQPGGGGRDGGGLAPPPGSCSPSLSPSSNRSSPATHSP
Text: as §1

RXRα = molecular target: T4, RXRα (Homo sapiens, UniProt P19793); test: receptor transactivation assay, RXRα; format: cell-based; conditions: first entry of cell, read-out: RXR Trans. EC50 (nM) α
T4 construct: the only RXRα plasmid printed
T4 sequence (P19793 227-462 limits assumed): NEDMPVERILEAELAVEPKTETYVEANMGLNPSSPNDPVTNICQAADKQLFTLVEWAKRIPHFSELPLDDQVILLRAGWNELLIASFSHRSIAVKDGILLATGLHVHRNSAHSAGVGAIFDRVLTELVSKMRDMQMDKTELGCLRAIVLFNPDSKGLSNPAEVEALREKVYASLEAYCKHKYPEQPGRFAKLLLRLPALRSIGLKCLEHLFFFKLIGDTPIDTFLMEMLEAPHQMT
Text: as §1

SMILES | Ki (RXRγ) [nM] | Ki (RARγ) [nM] | Ki (RARα) [nM] | EC50 (RXRα) [nM]
CC(/C=C/[C@@H]1C[C@]1(C)c1ccc2c(c1)C(C)(C)CO2)=C\C(=O)O [Compound 2, (6S,7S)-7-[5-(3,3-Dimethyl-2,3-dihydro-benzofuranyl)]-6.7-methano-3-methyl-octa-2E,4E-dienoic Acid] | 35 | > 10000 | > 10000 | 1.1
CC(/C=C/[C@@H]1C[C@]1(C)c1cc(C)c2c(c1)C(C)(C)CO2)=C\C(=O)O [Compound 4, (6S,7S)-7-[5-(3,3,7-Trimethyl-2,3-dihydro-benzofuranyl)]-6,7-methano-3-methyl-octa-2E,4E-dienoic acid] | 9.9 | > 10000 | > 10000 | 2.9
CCc1cc([C@@]2(C)C[C@H]2/C=C/C(C)=C/C(=O)O)cc2c1OCC2(C)C [Compound 6] | 3.2 | 13000 | > 30000 | 0.3
CC(/C=C/[C@@H]1C[C@]1(C)c1cc(C(C)(C)C)c2c(c1)C(C)(C)CO2)=C\C(=O)O [Compound 10, (6S,7S)-7-[5-(3,3-Dimethyl-7-t-butyl-2,3-dihydro-benzofuranyl)]-6,7-methano-3-methyl-octa-2E,4E-dienoic acid] | 1.3 | 13000 | 11000 | 0.55
CC(/C=C/[C@@H]1C[C@]1(C)c1cc(Br)c2c(c1)C(C)(C)CO2)=C\C(=O)O [Compound 20, (6S,7S)-7-[5-(7-Bromo-3,3-dimethyl-2,3-dihydro-benzofuranyl)]-6,7-methano-3-methyl-octa-2E,4E-dienoic Acid] | 40 | > 10000 | > 10000 | 2.4
CC(/C=C/[C@@H]1C[C@]1(C)c1cc(-c2ccccc2)c2c(c1)C(C)(C)CO2)=C\C(=O)O [Compound 22, 6S,7S)-7-[5-(3,3-Dimethyl-7-phenyl-2,3-dihydro-benzofuranyl)1-6,7-methano-3-methyl-octa-2E,4E-dienoic acid] | 6.2 | > 5260 | > 10000 | 8.3
CC(/C=C/[C@@H]1C[C@]1(C)c1cc(-c2c(C)cccc2C)c2c(c1)C(C)(C)CO2)=C\C(=O)O [Compound 24, 5-{(1 S 2S)-2-[7-(2,6-Dimethyl-phenyl)-3,3-dimethyl-2,3-dihydro-benzofuran-5-yl]-2-methyl-cyclopropyl}-3-methyl-penta-2E,4E-dienoic acid] | 4.8 | > 10000 | > 10000 | 0.52
CC(/C=C/[C@@H]1C[C@]1(C)c1cc(-c2ccccc2C)c2c(c1)C(C)(C)CO2)=C\C(=O)O [Compound 26, 5-[(1S,2S)-2-(3,3-Dimethyl-7-o-tolyl-2,3-dihydro-benzofuran-5-yl)-2-methyl-cyclopropyl]-3-methyl-penta-2E,4E-dienoic acid] | 6.1 | > 10000 | > 10000 | 0.2
CC(/C=C/[C@@H]1C[C@]1(C)c1cc(-c2ccc(C(C)(C)C)cc2)c2c(c1)C(C)(C)CO2)=C\C(=O)O [Compound 30, 5-{(1S, 2S)-2-[7-(4-tert-Butyl-phenyl)-3,3-dimethyl-2,3-dihydro-benzofuran-5-]-2-methyl-cyclopropyl}-3-methyl-pent-2E,4E-dienoic Acid] | 69.9 | > 10000 | > 10000 | 1520
COc1ccc(-c2cc([C@@]3(C)C[C@H]3/C=C/C(C)=C/C(=O)O)cc3c2OCC3(C)C)cc1 [Compound 32, (E)-3-((E)-2-{(1S,2S)-2-[7-(4-Methoxy-phenyl)-3,3-dimethyl-2,3-dihydro-benzofuran-5-yl]-2-methyl-cyclopropyl}-vinyl)-but-2-enoic acid] | 227 | > 10000 | 29000 | 581
CC(/C=C/[C@@H]1C[C@]1(C)c1cc(-c2ccc(F)cc2)c2c(c1)C(C)(C)CO2)=C\C(=O)O [Compound 34, (E)-3-((E)-2-{(1S,2S)-2-[7-(4-Fluoro-phenyl)-3,3-dimethyl-2,3-dihydro-benzofuran-5-yl]-2-methyl-cyclopropyl}-vinyl)-but-2-enoic acid] | 1.5 | 25000 | 23000 | 0.37

More lines, in order of falling Ki (RARγ), values ahead:

Ki (RXRγ) [nM] | Ki (RARγ) [nM] | Ki (RARα) [nM] | EC50 (RXRα) [nM] | SMILES
1.9 | 12000 | 8800 | 0.215 | CC(/C=C/[C@@H]1C[C@]1(C)c1cc(CC2CCCCC2)c2c(c1)C(C)(C)CO2)=C\C(=O)O [Compound 16, (6S,7S)-7-[5-(7-Cyclohexylmethyl-3,3-dimethyl-2,3-dihydro-benzofuranyl)]-6,7-methano-3-methyl-octa-2E,4E-dienoic Acid]
 | 9540 | 2620 | 594 | CCCCCCCc1ccccc1-c1cc([C@@]2(C)C[C@H]2/C=C/C(C)=C/C(=O)O)cc2c1OCC2(C)C [Compound 28]
2 | 9260 | 12000 | 0.25 | CCCCCCc1cc([C@@]2(C)C[C@H]2/C=C/C(C)=C/C(=O)O)cc2c1OCC2(C)C [Compound 18, (6S,7S)-7-[5-(3,3-Dimethyl-7-hexyl-2,3-dihydro-benzofuranyl)]-6,7-methano-3-methyl-octa-2E,4E-dienoic acid]
0.7 | 8910 | 18000 | 0.246 | CC(/C=C/[C@@H]1C[C@]1(C)c1cc(CC(C)(C)C)c2c(c1)C(C)(C)CO2)=C\C(=O)O [Compound 12, 5-{(1S,2S) 2-[7-(2,2-Dimethyl-propyl)-3,3-dimethyl-2,3-dihydro-benzofuran-5-yl]-2-methyl-cyclopropyl}-3-methyl-penta-2E,4E-dienoic Acid]
8.6 | 7510 | 42000 | 0.159 | CC(/C=C/[C@@H]1C[C@]1(C)c1cc(C(C)C)c2c(c1)C(C)(C)CO2)=C\C(=O)O [Compound 8, (6S,7S)-7-[5-(3,3-Dimethyl-7-iso-propyl-2,3-dihydro-benzofuranyl)]-6,7-methano-3-methyl-octa-2E,4E-dienoic Acid]
9.2 | 6650 | 8720 | 0.086 | CC(/C=C/[C@@H]1C[C@]1(C)c1cc(Cc2ccccc2)c2c(c1)C(C)(C)CO2)=C\C(=O)O [Compound 14, (6S,7S)-7-[5-(7-Benzyl-3,3-dimethyl-2,3-dihydro-benzofuranyl)]-6,7-methano-3-methyl-octa-2E,4E-dienoic Acid]

Source: patent publication US6720423B2, “Dihydrobenzofuran and dihydrobenzothiophene 2,4-pentadienoic acid derivatives having selective activity for retinoid X (RXR) receptors” (Allergan, Inc., priority 2002, dated 2004)
